Entries after “also recorded” stand apart in the source; their conditions may differ. Where no end group is shown, it is not given here. The star is where a group is joined. Dabcyl = CN(C)c1ccc(N=Nc2ccc(C(=O)*)cc2)cc1; EDANS = O=S(=O)(O)c1cccc2c(NCCN*)cccc12
How the values were obtained:
[1] = test system: leaf discs of N. benthamiana; format: cell-based, Nicotiana benthamiana; settings: n = 6
[2] = n = 8
[3] = AF from WT N. benthamiana; settings: Nicotiana benthamiana, room temperature, up to 60 min
[4] = AF of sbt5.2 mutant plants; settings: Nicotiana benthamiana, 21 °C, up to 20 min
P69B–His = test: purified P69B–His; settings: tomato, 21 °C, up to 20 min
SBT5.2a–His = format: biochemical, Nicotiana benthamiana; settings: different concentrations of SBT5.2a–His; 100 nM csp22; 45 minutes; read-out ROS burst on six-week-old leaf discs; n = 6
Protocol: Four-week-old N. benthamiana leaves were infiltrated with a 1:1 mixture (final OD600 = 0.5 for each) of A. tumefaciens GV3101 containing the silencing suppressor P19 and pPB097 or pJP008. AF containing SBT5.2a–His or P69B–His was extracted six days after infiltration and purified as previously described[44],[45].
The ROS burst assay was performed as previously described[43] except that L-012 (Wako Chemical) was used instead of luminol and the diameter of leaf discs used here was 4 mm rather than 6 mm. Briefly, after incubation in water overnight, one leaf disc (4 mm in diameter) was added to 100 µl of solution containing 25 ng µl^−1 L-012, 25 ng µl^−1 HRP and specified elicitor treatments. […] After incubation, 25 ng µl^−1 L-012 and 25 ng µl^−1 HRP were added to the AFs. Chemiluminescence was measured immediately with an Infinite M200 plate reader (Tecan) every minute for one hour.

With O=S(=O)(F)Cc1ccccc1 [PMSF] the “block of CspD perception (ROS burst) by subtilase inhibitor” value [1] was “unable to block CspD perception”.

For “QTGTVKWFNDEKGFGFITPQSG [csp22 PSPTO4145]”, the “speed of inactivation/degradation in AF of WT plants” value [2] was “slower than that of CspD”.

In the case of “DTGTVKWFNTSKGFGFISRDSG [csp22 PSPTO3984]”, the “speed of inactivation/degradation in AF of WT plants” value [2] is reported as “more quickly degraded than that of CspD”.

With “MLNGKVKWFNNAKGYGFILEDGKPDEDLFAHYSAIQMDGYKTLKAGQPVRFEIIQGPKGLHAVNIQSSLAKIGEPVKSAHAHTPEHAHA” the cleaved bond [3] was “F-N, first_seen, 15 min; also recorded: L-K, first_seen, 15 min”.

In the case of Dabcyl-VKWFNNAK-{EDANS}, the not cleaved [4] is reported as “no longer cleaved in AF of sbt5.2 mutants” and the not cleaved (P69B–His) is reported as “not cleaved by purified P69B–His”.

In the case of LNGKVKWFNNAKGYGFILEDGK [csp22], the “inactivation of csp22 elicitor activity by purified SBT5.2a–His” value (SBT5.2a–His) is reported as “dose-dependent inactivation”.

Source: publication PMC11570497 (Nature Plants, 2024)
